Source: patent US20260131007A1, “Mannose 6-Phosphate Receptor Binding Compounds for the Degradation of Extracellular Proteins” (Avilar Therapeutics, Inc., priority 2023, published 2026)

How the values were obtained:
IgG = assay: Uptake and degradation in K562 cells (Western blot); type: cell-based, human; conditions: K562 cells treated with compound and IgG; FIG. 14-17
Procedure: On day one, cells were harvested, counted, and seeded 1 million/well in 6 well plates for each cell line. On day two, cells were treated with compounds and IgG (Sigma, Cat #14506 dissolved in medium). Treated cells were washed three times with PBS, followed by addition of 200 μL of RIPA buffer (+HALT protease and phosphatase inhibitors) per well. Lysates were left on ice for 5 minutes then were collected into microcentrifuge tubes using a cell scraper. Lysates were then kept on a shaker for 30-60 minutes at 4° C. followed by centrifugation at 14,000 rpm at 4° C. for 15 minutes. Then, supernatants were transferred to fresh tubes and total protein concentration of each sample was determined using Pierce BCA kit. Next, 25 ug total protein of each sample was resolved on a 4-20% gels and transferred to PVDF membranes. Membranes were blocked in TBST+5% milk (made fresh) for one hour while shaking at room temperature. Then, the first antibody was added in TBST+5% milk at 4° C. overnight: a) Rabbit anti-human IgG, Abcam; Cat #ab181236-1:1000, b) anti-β-actin, Cell signaling Tech, Cat #3700S)-1:3000. On the next day, membranes were washed with TBST 10 minutes each for three times. Later, the second antibody was added in TBST+5% milk at room temperature over one hour: a) IRDye 800CW Goat anti Rabbit IgG, Licor, Cat #926-32211)-1:10,000; b) IRDye 680RD Goat anti Mouse IgG (Licor Cat #926-68078)-1:10,000. Then, membranes were washed with TBST 10 minutes each for three times. The results were detected by Licor. Data from the uptake and degradation assay is shown in FIG. 14, FIG. 15, FIG. 16, and FIG. 17.

[1] = molecular target: T1, hIGF-IIR and IgG1 (ternary complex) (Homo sapiens, UniProt P01857+P11717); assay: HTRF-based ternary complex formation assay for hIGF-IIR targeting Extracellular Protein Degraders; type: binding
T1 construct: purchased R&D Systems 6418-GR
Text: The ternary complex formation assay is designed to identify and determine the potency of Extracellular Protein Degrader molecules which can induce the formation of ternary complex between the Extracellular Protein Degrader hIGF-IIR. Titrating Extracellular Protein Degrader to fixed amount of hIGF-IIR results in a bell-shaped curve (except molecules whose binary complex affinity between Extracellular Protein Degrader and hIGF-IIR). The peak mean represents Extracellular Protein Degrader concentration at which maximum ternary complex is formed. Too much or too little Extracellular Protein Degrader leads to decreased ternary complex formation due to formation of binary complex (Hook effect). Dose response of Extracellular Protein Degrader compounds (16-point 3-fold dilution series, 100X) were prepared by Echo Acoustic Liquid Handler (Beckman Coulter Life Sciences) using 384-well LDV microplate. Then 200 nL of the solutions were transferred to an OptiPlate 384-well microplate (PerkinElmer, 6007290). To the assay plate, 10 μL working solution containing 60 nM of Biotinylated-IgG1 (Viva 20211108) and 60 nM of His-tagged hIGF-IIR (R&D Systems, 6418-GR) in assay buffer 50 mM Tris, pH 7.5, 150 mM NaCl, 50 mM CaCl2, 0.01% Tween-20 were added. The plate was incubated for 60 min at room temperature with gentle shaking to allow molecular interaction to reach equilibration. Following this, 10 μL of HTRF detection solution containing 15 nM Streptavidin-d2 (PerkinElmer, 610SADLA) and 0.7 nM MAb Anti 6HIS—Tb cryptate (PerkinElmer, 61HISTLA) in PPI Terbium detection buffer (PerkinElmer, 61DB10RDF) were added. The assay plate was incubated at room temperature with gentle shaking for 60 min to allow HTRF signal to develop. The plate was gently spun on a centrifuge then placed on an EnVision plate reader (Perkin Elmer, EnVision 2104) to read fluorescence ratio of 665 nm/615 nm. Data were analyzed by fitting with Bell-shaped non-linear regression model using GraphPad Prism (GraphPad Software, LLC; version 9.4.1). Mean fluorescence intensity is graphed versus compound concentration and the EC50 for TCF is calculated from the inflection point of the curve (GraphPad).

K562 cells = assay: Ternary complex formation (TCF) in K562 cells, flow cytometry with AF488-labeled human IgG; type: cell-based; conditions: AF488-labeled human IgG 300 nM, 4° C., 1 hour
Procedure: K562 cells were seeded in 96-well assay plate using K562 cell medium, then compounds and AF488-labeled human IgG (final concentration of 300 nM) were added at 4° C. and incubated for 1 hour. Afterwards, the cells were washed once with 1×PBS+0.1% BSA (Cold) and centrifuged at 1000 rpm for 5 minutes. Next, cells were re-suspended in 150 μL 1×PBS+0.1% BSA and ran flow cytometry on iQue® Screener PLUS.

human IgG (hIgG) = assay: DMPK study: degradation of coadministered human IgG in rats; type: in vivo; conditions: male SD rats, IgG 200 mg/kg IV, compound IV an hour later; FIG. 11, FIG. 12
Procedure: The dose formulation of IgG at 200 mg/kg was administered via IV injection to male SD rats, and Compound 5 was administered via IV injection an hour later (after IgG dosing). About 0.2 mL of blood was collected via jugular vein at each time point and was transferred into pre-cooled low binding EP tubes containing 4 μL of K2-EDTA (0.5 M) as anti-coagulant placed on wet ice. After blood was collected, the samples were processed for plasma by centrifugation at approximately 4° C., 3200 g for 10 minutes, the plasma was obtained within 30 minutes of blood collection. Then the plasma was transferred to two clean low binding EP tubes (50 μL each, one for PK, one for PD) and quickly frozen over dry ice and kept below −60° C. or lower for LC-MS/MS analysis. Plasma concentration versus time data was plotted in graph and analyzed by non-compartmental approaches using the Phoenix WinNonlin 6.3 software program. Related PK parameters were calculated according to dosing route, e.g. CL, Vdss and C0 for intravenous administration, Cmax, Tmax or % F for extravascular administration, and T1/2, AUC(0-1), AUC(0-inf), MRT(0-1), MRT(0-inf) for all routes. The quantification of human IgG concentration in animal plasma was conducted using human IgG ELISA kit. Plotted pharmacokinetic and pharmacodynamic data can be found in FIG. 10, FIG. 11, FIG. 12, and FIG. 13.

CC(C)C[C@@H]1NC(=O)[C@H](Cc2cnc[nH]2)NC(=O)[C@H](Cc2c[nH]c3ccccc23)NC(=O)[C@H](C)NC(=O)[C@@H]2CSSC[C@H](NC(=O)[C@H](Cc3c[nH]c4ccccc34)CC(=O)[C@H](C(C)C)NC(=O)[C@H](CC(C)C)NC(=O)[C@H](CCC(=O)O)NC(=O)CNC1=O)C(=O)N[C@@H]([C@@H](C)O)C(=O)N1CCC[C@@H]1C(=O)N1C[C@@H](NC(=O)COCCOCCOCC(=O)NC(COCCC(=O)NCCOCCn3cc(CCO[C@H]4O[C@H](CCP(=O)(O)O)[C@@H](O)[C@H](O)[C@@H]4O)nn3)(COCCC(=O)NCCOCCn3cc(CCO[C@H]4O[C@H](CCP(=O)(O)O)[C@@H](O)[C@H](O)[C@@H]4O)nn3)COCCC(=O)NCCOCCn3cc(CCO[C@H]4O[C@H](CCP(=O)(O)O)[C@@H](O)[C@H](O)[C@@H]4O)nn3)C[C@H]1C(=O)N[C@@H](CC(=O)O)C(=O)N2 [Compound 5]
degradation of IgG (gel electrophoresis image) (IgG): degradation of IgG | EC50 [1]: < 50 nM | EC50 (K562 cells): 50 to 250 nM | degradation of coadministered human IgG (percent of initial hIgG over time) (human IgG (hIgG)): degradation of coadministered human IgG
